Test results from US10045977B2, “Use of nalmefene in non-alcoholic steatohepatitis” (TAIWANJ PHARMACEUTICALS CO., LTD., priority 2016, dated 2018).

What was measured:
[1] = tested on: Kupffer cells; experiment: LPS-stimulated release of TNF-α in Kupffer cells; format: cell-based, rat; conditions: E. coli LPS; supernatant TNF-α at 2, 4, 6 hours; FIG. 1
Method: Kupffer cells were isolated by enzymatic digestion and purified by centrifugal elutriation from normal rats and cultured overnight. They were then stimulated with E. coli LPS either without or with Compound A added to the medium. TNF-α content in the supernatant was measured at 2, 4, and 6 hours.

[2] = tested on: p38 MAP kinase phosphorylation in Kupffer cells; experiment: LPS-induced p38 MAP kinase phosphorylation in Kupffer cells; format: cell-based, rat; conditions: Compound A 100 ng/mL; 5 and 20 min; n=3 replicates; FIG. 2
[3] = tested on: STAM model of NASH; experiment: In vivo efficacy study in STAM model of NASH; set-up: Steatosis score / Inflammation score / Ballooning score: scale not given here; conditions: for NAS (NAFLD Activity Score) compared with the Vehicle group, in words: HE-stained liver sections; for NAS (NAFLD Activity Score) compared with the Vehicle group, in words / Fibrosis area (Sirius red-positive area) compared with the Vehicle group: week 9; for Fibrosis area (Sirius red-positive area) compared with the Vehicle group: Sirius red-stained liver sections; for Ballooning score / Inflammation score / NAS (NAFLD activity score) / Steatosis score: mean ± SEM, twice daily from 6 to 9 weeks of age, Telmisartan 10 mg/kg oral, nalmefene/naltrexone 5 mg/kg s.c.
Excerpt: FIG. 3 sets out representative photomicrographs of HE-stained sections of livers from STAM model of NASH. Sections were cut from paraffin blocks of liver tissue prefixed in Bouin's solution and stained with Lillie-Mayer's Hematoxylin and eosin solution.
To visualize collagen deposition, Bouin's-fixed left lateral liver sections were stained using picro-Sirius red solution (Waldeck, Germany). b) For quantitative analysis of fibrosis area, bright field images of Sirius red-stained sections were captured around the central vein using a digital camera (DFC295; Leica, Germany) at 200-fold magnification, and the positive areas in 5 fields/section were measured using ImageJ software (National Institute of Health, USA). Individual values and mean±SEM for each treatment group are presented.
General Procedure NASH was induced in male C57BL/6 mice by a single subcutaneous injection of 200 μg streptozotocin solution 2 days after birth and feeding with high fat diet (HFD, 57 kcal % fat, Cat# HFD32, CLEA Japan, Japan) after 4 weeks of age. The animals were divided into groups of six each and were orally administered vehicle (1% Tween80) at 10 mL/kg or Telmisartan at 10 mg/kg twice daily from 6 to 9 weeks of age. […] The animals were sacrificed at week 9.

[4] = tested on: MCD diet fatty liver rats given E coli endotoxin (LPS); experiment: Methionine-choline-deficient (MCD) diet rat model with LPS second hit; format: in vivo, Sprague Dawley rats; conditions: for Prevention of liver injury following LPS in fatty liver rats: 0-30 mg/kg oral, FIG. 5; for Serum ALT change, in words: 6 h after LPS, p<0.05
Method: 20 Sprague Dawley rats were administered with Compound A by oral gavage once daily at 0, 5, 10, 20 or 30 mg/kg (4 rats/group) for 4 weeks. All animals were fed a methionine/choline deficient (MCD) diet (from Dyets, Inc) five times per week during the feeding period in order to produce a diet-induced fatty liver. Rats were weighed daily as well as food intake. At the end of four weeks, the rats were administered 2 mg/kg E coli endotoxin (LPS) IP and 6 hours later the rats were euthanized and liver tissue and serum collected. Liver and was harvested at time of death as was blood. Histology samples were also taken.

[5] = tested on: MCD diet fatty liver rats given E coli endotoxin (LPS); experiment: as above; format: in vivo, Sprague Dawley rats; conditions: 6 h after LPS 2 mg/kg IP, n=3, not statistically significant

C=C1CC[C@@]2(O)C3Cc4ccc(O)c5c4C2(CCN3CC2CC2)C1O5 (stereo in doubt) [Compound A, 17-cyclopropylmethyl-4,5α-epoxy-6-methylenemorphinan-3,14-diol]
LPS/time-dependent increase in TNF-α released by Kupffer cells [1]: inhibited | LPS-induced p38 MAP kinase phosphorylation [2]: reduced | Mortality during the treatment period ([3]; 5 mg/kg s.c. twice daily, before week 9): one out of six mice was found dead | NAS (NAFLD Activity Score) compared with the Vehicle group, in words [3]: tended to show decrease | Fibrosis area (Sirius red-positive area) compared with the Vehicle group [3]: tended to shown decrease | Ballooning score [3]: 0.40 ± 0.24 | Inflammation score [3]: 1.80 ± 0.20 | NAS (NAFLD activity score) [3]: 3.00 ± 0.63 | Steatosis score [3]: 0.80 ± 0.49 | Prevention of liver injury following LPS in fatty liver rats [4]: dose-dependent prevention of liver injury | Prevention of liver injury following LPS in fatty liver rats ([4]; listed as Nalmefene): demonstrated efficacy in preventing inflammatory liver damage | Serum ALT change, in words ([4]; 20 mg/kg oral once daily 4 weeks): further decrease that was significant | Serum ALT ([4]; 30 mg/kg oral once daily 4 weeks, 6 h after LPS 2 mg/kg IP): 94.9+/−5.5 U/L | Serum ALT change, in words ([4]; 30 mg/kg oral once daily 4 weeks): further decrease that was significant | Liver histopathology finding ([4]; MCD and Compound A treated rats, FIG. 7): slight periportal chronic inflammation (mild nonspecific chronic hepatitis) | Liver histopathology finding ([4]; MCD+LPS+Compound A treated rats, FIG. 7): slight periportal chronic inflammation | Hepatic fat accumulation (histopathology) ([4]; treated rats compared to control, FIG. 7): prevents hepatic fat accumulation | Decrease of elevated serum ALT levels ([5]; 5 mg/kg oral once daily 4 weeks): ~50% | Decrease of elevated serum ALT levels ([5]; 10 mg/kg oral once daily 4 weeks): ~50%

O=C1CC[C@@]2(O)C3Cc4ccc(O)c5c4C2(CCN3CC2CC2)C1O5 (stereo in doubt) [Compound B, 17-cyclopropylmethyl-4,5α-epoxy-6-oxomorphinan-3,14-diol]
NAS (NAFLD Activity Score) compared with the Vehicle group, in words [3]: significant decreases | Fibrosis area (Sirius red-positive area) compared with the Vehicle group [3]: significantly decreased | Ballooning score [3]: 0.00 ± 0.00 | Inflammation score [3]: 1.67 ± 0.33 | NAS (NAFLD activity score) [3]: 2.17 ± 0.40 | Steatosis score [3]: 0.50 ± 0.22

CCCc1nc2c(C)cc(-c3nc4ccccc4n3C)cc2n1Cc1ccc(-c2ccccc2C(=O)O)cc1 [Telmisartan]
Mean body weight during the treatment period ([3]; 6 to 9 weeks of age): gradually decreased | NAS (NAFLD Activity Score) compared with the Vehicle group, in words [3]: significant decreases | Fibrosis area (Sirius red-positive area) compared with the Vehicle group [3]: significantly decreased | Ballooning score [3]: 1.00 ± 0.26 | Inflammation score [3]: 1.17 ± 0.48 | NAS (NAFLD activity score) [3]: 2.67 ± 0.56 | Steatosis score [3]: 0.50 ± 0.22
